# Data taken from patent US20180155386A1, “PROGESTERONE ANTAGONISTS” (Evestra, Inc., priority 2011, published 2018).
# Legend:
# [1] = tested on: progesterone receptor positive breast cancer; conditions: rat model of PR positive breast cancer; cited from earlier work
# [2] = tested on: nidation (implantation) sites in pregnant rats; experiment: Antinidation test in rat; format: in vivo, rats (Sprague-Daley); conditions: rats with implantation sites / rats treated; 3 mg/day s.c. from day 5 of pregnancy, counted at day 9; 0/3 = full progesterone antagonist
# Protocol: For every compound to be screened in rats (Sprague-Daley) 3 control rats (vehicle treated, s.c.), 3 rats treated (s.c.) with a known progestin antagonist and 3 rats treated (s.c.) with the test compound (3 mg/day) are used. Female rats will be placed with male rats for 3 to 4 days and exam the vagina for sperm plugs every morning. The presence of a sperm plug will indicate day 1 of pregnancy. Pregnant rats will be treated daily with 3 mg of the screened compound at beginning on day 5 of pregnancy. At day 9 of gestation the rats will be euthanized and nidation sites counted.
# [3] = tested on: uterine weight of non-pregnant guinea pigs; experiment: Uterine weights of guinea pigs; format: in vivo; conditions: 10 mg s.c. from day 10 of cycle; sacrifice day 18; untreated guinea pig 1.2 g; higher than 1.2 g indicates pure progesterone antagonistic activity
# Protocol: 3 Non-pregnant guinea pigs in the luteal phase of the cycle will be treated with 10 mg of the compound subcutaneously beginning on day 10 of the cycle. Animals were sacrificed on day 18 after the start of the treatment and the uterine weights were obtained at the time of sacrifice. Comparisons will be made to onapristone-treated animals at 10 mg/animal/day s.c
# [4] = target: T1, progesterone receptor-LBD-UAS-bla HEK 293T cells (Homo sapiens, UniProt P06401); experiment: Progesterone Antagonist Screen (GeneBLAzer Beta-lactamase reporter, activated by control agonist R5020); format: cell-based; conditions: values relative to RU486, which is 100%; HEK 293T reporter cells, agonist R5020 at EC80
# T1 construct: host or cells: HEK 293T
# T1 sequence (P06401 679-913 limits assumed): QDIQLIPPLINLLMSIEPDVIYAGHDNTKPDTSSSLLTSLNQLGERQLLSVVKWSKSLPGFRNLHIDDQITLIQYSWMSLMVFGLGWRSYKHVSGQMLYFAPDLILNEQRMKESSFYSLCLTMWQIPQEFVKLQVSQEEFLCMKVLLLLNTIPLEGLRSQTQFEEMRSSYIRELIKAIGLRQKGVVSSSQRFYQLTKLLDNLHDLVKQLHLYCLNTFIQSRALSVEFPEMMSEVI
# Protocol: Determination of the agonist/antagonist nature of the test compounds was carried out using Invitrogen's SelectScreen™ Cell-based nuclear receptor profiling service which uses the GeneBLAzer® Beta-lactamase reporter technology. Basically this assay uses a Beta-lactamase cDNA under transcriptional control of an Upstream Activator Sequence (UAS). The UAS is activated by the GAL4 transcription factor DNA binding domain (DBD), which is expressed as a fusion protein with the target receptor ligand binding domain (LBD). Upon ligand binding, the GAL4(DBD)-NR(LDB) binds to the UAS, which controls transcription of Beta-lactamase. Beta-lactamase cleaves a special engineered fluorescent substrate which results in a change in the measured fluorescence wavelength.
# The generalized protocol used for the Progesterone Antagonist Screen, activated by control Agonist R5020 is as follows:
# The progesterone receptor-LBD-UAS-bla HEK 293T cells are thawed and prepared as described above for the Agonist screen. 4 μL of a 10× serial dilution of control antagonist RU-486 (starting concentration, 100 nM) or test compounds are added to appropriate wells of a TC-Treated assay plate. 32 μL of cell suspension is added to the wells which is then pre-incubated at 37° C./5% CO2 in a humidified incubator with test compounds and control antagonist titration for 30 minutes. 4 μL of a 10× control agonist (see above) at the predetermined EC80 concentration is added to wells containing the control antagonist or test compounds. The plate is incubated for 16-24 hours at 37° C./5% CO2 in a humidified incubator. 8 μL of 1 μM Substrate Loading Solution is added to each well and the plate is incubated for 2 hours at room temperature. The plate is then read on a fluorescence plate reader (Tecan Safire).
# [5] = tested on: human breast cancer cell line T47D; experiment: In vitro antiproliferative activity in human breast cancer cell line T47D (MTT); format: cell-based; conditions: 168 h, T47D cells, 7 days after cell seeding
# Protocol: Cells from frozen stock were expanded in T75 cell culture flasks. For the experiment, cells in the logarithmic growth phase (70% confluent) were cultivated for 3 day without estradiol and then washed with PBS, detached by trypsination and suspended in 5 ml of fresh RPMI-1640 medium. Cells were centrifuged for 5 min at 1000 rpm and the pellet was resuspended in RPMI-1640 medium.
# Cells were seeded in 96-well plates with a density of 5000 cells/well/in 0.18 mL RPMI-1640 medium. Cells were allowed to attach for 24 h. Visual control for viability at 24 h and cell culture medium change. At this time point, compounds were added in 20 μl to the final concentration. After 3 days medium and compounds where changed again. Finally, 7 days after cell seeding, 20 μl MTT-solution was added to each well and 4 h later the formed tetrazolium salt was measured with a photometer.
Structure (SMILES),Emax [4],development of new tumors [1],tumor size [1],Implantation Sites [2],Uterine Weights of Guinea Pigs Treated with antiprogestins (grams) [3],IC50 [5]
"COCC(=O)[C@@]1(OC(C)=O)CC[C@H]2[C@@H]3CCC4=CC(=O)CCC4=C3[C@@H](c3ccc(N(C)C)cc3)C[C@@]21C [CDB-4124, Proellex, reference compound]",–,decrease in the development of new tumors,regression of tumor size,0/3,1.41 grams,–
"CC(=O)c1ccc([C@H]2C[C@@]3(C)[C@@H](CC[C@@]3(O)C#CC(F)(F)F)[C@@H]3CCC4=CC(=O)CCC4=C32)cc1 [Compound 1a, 11β-(4′-Acetylphenyl)-17β-hydroxy-17-(3,3,3-trifluoro-1-propynyl)-estra-4,9-diene-3-one]",6%,–,–,1/3,1.3 grams,17000 pM
"CC(=O)c1ccc([C@H]2C[C@@]3(C)C(CC[C@@]3(O)/C=C/C(F)(F)F)C3CCC4=CC(=O)CCC4=C32)cc1 (stereo partly drawn) [Compound 1b, 11β-(4′-Acetylphenyl)-17β-hydroxy-17-(3,3,3-trifluoroprop-1(E)-enyl)-estra-4,9-diene-3-one]",33%,–,–,0/3,0.785 grams,640 pM
"CC(=O)c1ccc([C@H]2C[C@@]3(C)[C@@H](CC[C@@]3(O)CC(F)=C(F)F)[C@@H]3CCC4=CC(=O)CCC4=C32)cc1 [Compound 1c, 11β-(4′-Acetylphenyl)-17β-hydroxy-17-(2,3,3-trifluoroprop-2-enyl)-estra-4,9-diene-3-one]",21%,–,–,0/3,1.8 grams,3100 pM
"C=CC(F)(F)[C@]1(O)CC[C@H]2[C@@H]3CCC4=CC(=O)CCC4=C3[C@@H](c3ccc(C(C)=O)cc3)C[C@@]21C [Compound 1d, 11β-(4′-Acetylphenyl)-17β-hydroxy-17-(1,1-difluoroprop-2-enyl)-estra-4,9-diene-3-one]",119%,–,–,–,–,300 pM
"CCC(F)(F)[C@]1(O)CC[C@H]2[C@@H]3CCC4=CC(=O)CCC4=C3[C@@H](c3ccc(C(C)=O)cc3)C[C@@]21C [Compound 1e, 11β-(4′-Acetyl-phenyl)-17β-hydroxy-17-(1,1-difluoropropyl)-estra-4,9-diene-3-one]",191%,–,–,–,–,300 pM
"C[C@]12C[C@H](c3ccc(C(=O)C4CC4)cc3)C3=C4CCC(=O)C=C4CC[C@H]3[C@@H]1CC[C@@]2(O)C(F)(F)C(F)(F)F [Compound 2a, 11β-(4′-[Cyclopropylcarbonyl]phenyl)-17β-hydroxy-17-(1,1,2,2,2-pentafluoroethyl)-estra-4,9-diene-3-one]",91%,–,–,0/3,2.3 grams,1200 pM
"CC#C[C@]1(O)CC[C@H]2[C@@H]3CCC4=CC(=O)CCC4=C3[C@@H](c3ccc(C(=O)C4CC4)cc3)C[C@@]21C [Compound 2b, 11β-(4′-[Cyclopropylcarbonyl]phenyl)-17β-hydroxy-17-(1-propynyl)-estra-4,9-diene-3-one]",45%,–,–,–,–,640 pM
"C[C@]12C[C@H](c3ccc(C(=O)C4CC4)cc3)C3=C4CCC(=O)C=C4CC[C@H]3[C@@H]1CC[C@@]2(O)CCCO [Compound 2c, 11β-(4′-[Cyclopropylcarbonyl]phenyl)-17β-hydroxy-17-(3-hydroxypropyl)-estra-4,9-diene-3-one]",2%,–,–,–,1.35 grams,4600 pM
"C[C@]12C[C@H](c3ccc(C(=O)C4CC4)cc3)C3=C4CCC(=O)C=C4CCC3C1CC[C@@]2(O)/C=C\CO (stereo partly drawn) [Compound 2d, 11β-(4′-[Cyclopropylcarbonyl]phenyl)-17β-hydroxy-17-(3-hydroxyprop-1(Z)-enyl)-estra-4,9-diene-3-one]",6%,–,–,–,0.99 grams,–
"C=C1CCO[C@]12CCC1C3CCC4=CC(=O)CCC4=C3[C@@H](c3ccc(C(=O)C4CC4)cc3)C[C@@]12C (stereo partly drawn) [Compound 2e, 11β-(4′-[Cyclopropylcarbonyl]phenyl)-17,23-epoxy-19,24-dinor-17α-chola-4,9,20-triene-3-one]",48%,–,–,–,1.02 grams,370 pM
"CC#C[C@]1(O)CC[C@H]2[C@@H]3CCC4=CC(=O)CCC4=C3[C@@H](c3ccc(C(=O)c4ccc(C#N)cc4)cc3)C[C@@]21C [Compound 4, 11β-(4′-[4-Cyanobenzoyl]phenyl)-17β-hydroxy-17-(1-propynyl)-estra-4,9-diene-3-one]",38%,–,–,–,–,–
"CN(C)c1ccc([C@H]2C[C@]3(C)[C@@H](CC[C@]3(O)CCCO)[C@@H]3CCC4=CC(=O)CCC4=C32)cc1 [ZK98299, reference compound]",–,–,–,2/3,1.07 grams,–

# The next lines start with results.
Emax [4],Structure (SMILES),development of new tumors [1],tumor size [1],Implantation Sites [2],Uterine Weights of Guinea Pigs Treated with antiprogestins (grams) [3],IC50 [5]
190%,"C[C@]12C[C@H](c3ccc(-c4cccnc4)cc3)C3=C4CCC(=O)C=C4CCC3C1CC[C@@]2(O)/C=C/C(F)(F)F (stereo partly drawn) [Compound 3a, 11β-(4′-[3-Pyridinyl]phenyl)-17β-hydroxy-17-(3,3,3-trifluoroprop-1(E)-enyl)-estra-4,9-diene-3-one]",–,–,0/4,0.87 grams,–
200%,"C=CC(F)(F)[C@]1(O)CC[C@H]2[C@@H]3CCC4=CC(=O)CCC4=C3[C@@H](c3ccc(-c4cccnc4)cc3)C[C@@]21C [Compound 3b, 11β-(4′-[3-Pyridinyl]phenyl)-17β-hydroxy-17-(1,1-difluoroprop-2-enyl)-estra-4,9-diene-3-one]",–,–,0/4,–,–
